Tests used:
[1] = target: T1, Human recombinant OX2 receptors (Homo sapiens, UniProt O43614); test: Human Orexin GPCR Binding (Agonist Radioligand) Assay, [125I] Orexin A competition; details: radioligand competition binding assay; read-out: IC50 (nM) OXR2
T1 sequence (O43614 1-444): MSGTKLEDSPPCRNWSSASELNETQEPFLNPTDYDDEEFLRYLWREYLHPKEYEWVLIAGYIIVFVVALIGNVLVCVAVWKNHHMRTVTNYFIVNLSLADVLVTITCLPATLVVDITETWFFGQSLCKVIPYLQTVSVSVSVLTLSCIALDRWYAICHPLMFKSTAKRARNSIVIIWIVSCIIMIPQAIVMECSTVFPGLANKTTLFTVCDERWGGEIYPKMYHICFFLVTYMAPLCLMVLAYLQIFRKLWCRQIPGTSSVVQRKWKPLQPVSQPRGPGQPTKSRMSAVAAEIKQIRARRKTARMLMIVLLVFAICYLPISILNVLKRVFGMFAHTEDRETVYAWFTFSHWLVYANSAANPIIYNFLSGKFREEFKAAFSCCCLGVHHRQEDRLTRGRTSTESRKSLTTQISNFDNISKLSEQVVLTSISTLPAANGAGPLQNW
Method: (§1) Radioligand competition binding assays were performed by Panlabs, Eurofins Pharma Discovery Services. Briefly, human recombinant orexin OX1 receptors expressed in CHO-S cells were used in modified HEPES buffer pH 7.4. […] Orexin A for 60 minutes at 25 °C. […] Orexin A specifically binding. Human recombinant OX2 receptors were used in modified HEPES buffer pH 7.4. […] Orexin A for 180 minutes at 25 °C. […] Orexin A specifically bound.

[2] = target: T2, human recombinant orexin OX1 receptors (Homo sapiens, UniProt O43613); test: as above; details: radioligand competition binding assay; read-out: IC50 (nM) OXR1
T2 construct: host or cells: CHO-S cells
T2 sequence (O43613 1-425): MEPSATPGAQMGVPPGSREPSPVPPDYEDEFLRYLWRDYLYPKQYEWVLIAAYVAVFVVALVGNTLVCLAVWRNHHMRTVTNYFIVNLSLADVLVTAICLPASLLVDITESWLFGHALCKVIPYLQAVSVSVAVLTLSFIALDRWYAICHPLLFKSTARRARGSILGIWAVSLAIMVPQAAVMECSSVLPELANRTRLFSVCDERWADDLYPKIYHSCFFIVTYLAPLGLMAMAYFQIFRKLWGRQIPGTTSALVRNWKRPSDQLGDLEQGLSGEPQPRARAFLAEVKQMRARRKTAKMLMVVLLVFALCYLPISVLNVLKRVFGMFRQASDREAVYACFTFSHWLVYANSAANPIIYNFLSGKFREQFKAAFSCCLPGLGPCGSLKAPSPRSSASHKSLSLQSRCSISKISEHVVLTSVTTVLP
Method: as §1

[3] = test system: OXRs; test: Mouse PET-CT blocking study of [^11C]CW24 uptake; type: in vivo, mice
Method: (§2) Animals were anesthetized with 1–1.5% isoflurane and maintained with isoflurane during the imaging scan. In a single imaging session, mice were arranged in a Triumph PET/CT scanner (Gamma Medica, Northridge, CA). […] Animals underwent a 60 min dynamic PET scan followed by computed tomography (CT).
(§3) PET data were reconstructed using a 3D-MLEM method resulting in a full width at half-maximum resolution of 1 mm. PET and CT images in DICOM format were imported to PMOD (PMOD Technologies, Ltd. Zürich, Switzerland) and co-registered to the brain atlas. Volumes of interest (VOIs) were drawn as spheres in brain regions guided by CT structural images and summed PET data. Time-activity curves (TACs) were exported as activity per unit volume (%ID/cc) for analysis.

[4] = Mouse PET-CT imaging, brain uptake; type: in vivo; details: mice, i.v., baseline
Method: as §2, §3

[5] = Macaque PET-MR imaging and Logan plot kinetic modeling; type: in vivo, rhesus macaque; details: all brain regions examined
Method: A male rhesus macaque (14.4 kg) was included in this study. After endotracheal intubation, the macaque was catheterized antecubitally for radiotracer injection and a radial arterial line was placed for arterial blood sampling and radiometabolite analysis. The animal was anesthetized with 1.2–1.3% Isoflurane in medical oxygen throughout the imaging session. PET-MR data was acquired on a 3T Siemens MRI scanner (Munich, Germany) with a BrainPET insert. A baseline and a blocking scan were performed on the same animal. Dynamic PET image acquisition was initiated followed by a bolus administration of [^11C]CW24 (179 MBq for the baseline scan and 192 MBq for the blocking scan). To characterize the specific binding of [^11C]CW24, a blocking study was carried out in which 2.0 mg/kg IPSU (1.0 % DMSO + 1.0 % Tween 80 + 98.0 % saline to make a solution of 1.0 mg/mL) was administered 5 min prior the acquisition. A T1-weighting multi-echo magnetization-prepared rapid gradient-echo ([…]) sequence began as the PET scan for anatomic co-registration. […]
Motion-corrected PET data were registered to the INIA19 macaque MRI Template. […] With the availability of a metabolite-corrected arterial plasma data, the regional volume of distribution (VT) was calculated using Logan Plot analysis (with a fixed t* of 40 min).

[6] = Plasma and metabolite analysis; type: in vivo, rhesus macaque; details: macaque arterial plasma, at 30 min
Method: Briefly, arterial blood samples collected (every 10 s at first 3 min post-administration of [^11C]CW24, then 5 min, 10 min, 20 min, 30 min, 45 min, 60 min, and 90 min) during macaque imaging were centrifuged to separate plasma, which was then removed and placed in an automated gamma counter. Metabolite analysis of blood samples collected from 5 to 90 min was conducted on a custom automated robot fitted with Phenomenex SPE Strata-X 500 mg solid phase extraction cartridges that were primed with ethanol (2 mL) and deionized water (20 mL). Protein precipitation was achieved by the addition of plasma (300 μL) to acetonitrile (300 μL), which was centrifuged for 1 min to obtain protein-free plasma (PFP). Three hundred microliters of PFP/acetonitrile solution was diluted into deionized water (3 mL), loaded onto the C18 cartridge, and removed of polar metabolites with 100% water. Next, a series of extractions was performed using water and acetonitrile. Each sample was counted in a WIZARD2 Automatic Gamma Counter to determine the presence of radiolabeled metabolites.

[7] = test system: OX2R; details: OX2R vs OX1R; cited from earlier work

COc1ccnc(N2CCC3(CCCN(Cc4c[nH]c5ccccc45)C3=O)CC2)n1 [IPSU, reference compound]
IC50 [1]: 3130 nM
IC50 [2]: 1090 nM
reduction in [^11C]CW24 uptake ([3]; mice brain, 0.5 mg/kg IPSU i.v. 5 min pretreatment, 30–60 mins post-injection): Approximately 10%
reduction in [^11C]CW24 uptake ([3]; mice brain, 2.0 mg/kg IPSU i.v. 5 min pretreatment): approximately 50%

Cc1ccc(-n2nccn2)c(C(=O)N2CCN(c3nc4cc(Cl)ccc4o3)CC[C@H]2C)c1 [Suvorexant]
reduction in [^11C]CW24 uptake ([3]; mouse brain, Suvorexant 5.0 mg/kg i.v., 30–60 mins post-injection): approximately 50%

COc1ccnc(N2CCC3(CCCN(Cc4cn([11CH3])c5ccccc45)C3=O)CC2)n1 [[^11C]CW24]
brain uptake %ID/cc at Cmax [4]: 3.5 %ID/cc
peak standard uptake value (SUV) [5]: 1.5–3.0
parent compound in plasma [6]: ~ 47%

orexin-B: orexin peptide with 28 amino acids
higher affinity for OX2R compared with OX1R [7]: 10 fold
